Data: patent US5677152A, “Nucleic acid amplification using a reersibly inactivated thermostable enzyme” (Roche Molecular Systems, Inc., priority 1996, dated 1997)

Columns and labels:
HIV-1 genomic sequence [1] = assay: Effect of amplification cycle number on PCR product (HIV-1 model system); format: biochemical; conditions: no pre-reaction incubation; 39, 43, 48, 60 cycles
Procedure: Amplifications were carried out using the Taq DNA polymerases modified using a 80-fold and a 160-fold molar excess of citraconic anhydride, and a 90-fold and a 180-fold molar excess of cis-aconitic anhydride. The Amplifications were carried out essentially as described above using the HIV-1 model system described in Example 6, except that the initial pre-reaction incubation and cycle numbers were varied. For each enzyme preparation, amplifications were carried out using the following conditions: […]
The amplification products were analyzed by agarose gel electrophoresis.

HIV-1 genomic sequence [2] = assay: Effect of pre-reaction incubation time on PCR product (HIV-1 model system); format: biochemical; conditions: for amplified product without a pre-reaction incubation (FIG. 4): 0 minutes pre-reaction incubation, compared with extended incubation
Procedure: Amplifications were carried out using the citraconylated and cis-aconitylated Taq DNA polymerases prepared as described above. For each set of amplification conditions, Taq DNA polymerases modified using a 80-fold and a 160-fold molar excess of citaconic anhydride, and a 90-fold and a 180-fold molar excess of cis-aconitic anhydride were used. Amplifications were carried out using the HIV-1 model system described in Example 6, above, except that the initial pre-reaction incubation was varied. For each enzyme preparation, amplifications were carried out using pre-reaction incubations of 12, 6, 3, and 0 minutes.
As noted above, the pre-reaction incubation step also serves as the initial denaturation step. Each cycle of a PCR begins with a denaturation step. Immediately following the initial pre-reaction incubation carried out at 95° C. for 12, 6, 3, or 0 minutes, each reaction mixture is incubated at 94° C. for 1 minute during the denaturation step of the first cycle. Thus, even when no pre-reaction incubation was used, enzyme activity is recovered during the denaturation step of the initial cycles.
The amplification products were analyzed by agarose gel electrophoresis. The band corresponding to the amplified target sequence is indicated. Bands appearing on the gel other than the band which corresponds to the amplified target sequence correspond to the products generated by the non-specific amplification of non-target sequences.

[3] = Storage stability of inactivated enzyme; format: physicochemical; conditions: stored at 25° C.
HIV-1 genomic sequence [4] = assay: PCR amplification of HIV-1 with citraconylated DNA polymerases, agarose gel analysis; format: biochemical; conditions: 100 copies HIV-1 template; pre-reaction incubation 95° C. for 12 minutes; enzyme dilutions 1/10-1/80
Procedure: Amplifications were carried out using dilutions of modified DNA polymerases. Dilutions were made in a buffer consisting of 20 mM Tris-HCl, pH 8.0 (at room temperature), 100 mM KCl,0.1 mM EDTA (ethylenediaminetetraacetic acid), 1 mM DTT (dithiothreitol), 50% glycerol, 0.5% Tween 20, 0.5% Nonidet P40 (AmpliTaq® storage buffer, Perkin Elmer, Norwalk, Conn.).
An HIV-1 genomic sequence was amplified using primers SK145 and SK431 (Perkin Elmer, Norwalk, Conn.). The PCR was carried out in a 100 μl reaction volume under the following reaction conditions.
100 copies of HIV-1 DNA template
(§1) 200 μM dATP, dCTP, and dGTP
0.5 μl of DNA polymerase solution
(§2) 1 unit of UNG (Perkin Elmer, Norwalk, Conn.) […]
The pre-reaction incubation step also serves as the initial denaturation step. An initial denaturation step is routinely used in a typical amplification reaction to insure complete denaturation of the double-stranded target. Each cycle of the PCR begins with a denaturation step of 94° C. for 1 minute. Thus, immediately following the initial pre-reaction incubation carried out at 95° C. for 12 minutes, the reaction mixture is incubated at 94° C. for 1 minute during the denaturation step of the first cycle.
The amplified products were analyzed by agarose gel electrophoresis (100 ml of 3% NuSieve and 0.5% SeaChem) using a 1× TBE (0.089M Tris, 0.089M boric acid, 0.0025M disodium EDTA) running buffer. Electrophoresis was carried out at 100 volts for approximately 1 hour. Ethidium bromide (0.5 μg/ml) was added following electrophoresis to stain any DNA present. The gel was destained in TBE and the ethidium bromide-stained bands of DNA were visualized using UV irradiation.
Dilutions (1/10, 1/20, 1/40, and 1/80) of the citraconylated DNA polymerases described in Example 5 and the 240× citriconylated Taq DNA polymerase described in Example 2 were used in amplifications of HIV-1 nucleic acid and the amplified products were anaylzed by agarose gel electrophoresis. For comparison, amplifications were carried out using dilutions of unmodified Taq DNA polymerase. […]

[5] = test system: cloned HTLV-I genomic sequence; assay: PCR amplification of HTLV-I with citraconylated Taq DNA polymerase, agarose gel analysis; format: biochemical; conditions: 30 copies HTLV-I template; pre-reaction incubation 90° C. for 10 minutes; enzyme dilutions 1/10-1/80
Procedure: Amplifications were carried out using 1/20, 1/40, and 1/80 dilutions of the 240× modified Taq DNA polymerase described in Example 2. Dilutions were made in a buffer consisting of 20 mM Tris-HCl, pH 8.0 (at room temperature), 100 mM KCl, 0.1 mM EDTA (ethylenediaminetetraacetic acid), 1 mM DTT (dithiothreitol), 50% glycerol, 0.5% Tween 20, 0.5% Nonidet P40 (AmpliTaq®storage buffer, Perkin Elmer, Norwalk, Conn.). For comparison, amplifications also were carried out using 1/10, 1/20, 1/40, and 1/80 dilutions of unmodified Taq DNA polymerase.
A cloned HTLV-I genomic sequence was amplified using primers SK432 and SK111. The primer sequences are provided in U.S. Pat. No. 5,418,149, incorporated herein by reference. The PCR was carried out in a 100 μl reaction volume under the following reaction conditions.
30 copies of HTLV-I DNA template
as §1
0.5 μl of citraconylated Taq DNA polymerase solution
as §2
The amplified products were analyzed by 4% agarose gel electrophoresis using a 1× TBE (0.089M Tris, 0.089M boric acid, 0.0025M disodium EDTA) running buffer. Electrophoresis was carried out at 100 volts for approximately 2 hours. Ethidium bromide (0.5 μg/ml) was added following electrophoresis to stain any DNA present. The gel was destained in 1× TBE and the ethidium bromide-stained bands of DNA were visualized using UV irradiation. […]

Row | Molecule | effect of increasing the amplification cycle number on amplified product (FIG. 5) (HIV-1 genomic sequence [1]) | amplified product without a pre-reaction incubation (FIG. 4) (HIV-1 genomic sequence [2]) | amplified product band over pre-reaction incubation times (FIG. 4) (HIV-1 genomic sequence [2]; pre-reaction incubations of 12, 6, 3 and 0 minutes at 95° C.) | storage stability: time enzyme remains inactivated [3] | pre-reaction incubation required to obtain the maximum amount of amplified product (HIV-1 genomic sequence [2]; 95° C. pre-reaction incubation) | amplified target band versus non-specific amplification products (FIG. 3) (HIV-1 genomic sequence [4]) | amplified target band versus non-specific amplification products (FIG. 2) [5]
1 | cis-aconitylated DNA polymerase: Taq DNA polymerase modified using cis-aconitic anhydride (90× and 180× preparations) | The effect was smallest | nearly as much product as the amplifications using an extended pre-reaction incubations | all pre-reaction incubation times resulted in a strong band corresponding to amplified product | – | – | – | –
2 | citraconylated Taq DNA polymerase: Taq DNA polymerase modified using citraconic anhydride; 240× in Examples 4 and 6, 80× and 160× in Examples 9 and 10 | – | significantly less amplified product | – | remain inactivated for at least four weeks | at least 3 minutes | intense band corresponding to the amplified target sequence for all but the 1/80 dilution | significant increase in the intensity of the band corresponding to the amplified target sequence, and a significant decrease in the intensity of the bands corresponding to non-specific amplification products
3 | unmodified Taq DNA polymerase: Taq DNA polymerase (AmpliTaq®, Perkin Elmer), unmodified comparison enzyme [reference compound] | – | – | – | – | – | predominantly non-specific amplification product | predominantly non-specific amplification product
4 | citraconylated rTth: citraconylated thermostable DNA polymerase from Thermus thermophilus (protein, UniProt P52028 1-834, looked up, citraconylated) DNA polymerase I, thermostable: MEAMLPLFEPKGRVLLVDGHHLAYRTFFALKGLTTSRGEPVQAVYGFAKSLLKALKEDGYKAVFVVFDAKAPSFRHEAYEAYKAGRAPTPEDFPRQLALIKELVDLLGFTRLEVPGYEADDVLATLAKKAEKEGYEVRILTADRDLYQLVSDRVAVLHPEGHLITPEWLWEKYGLRPEQWVDFRALVGDPSDNLPGVKGIGEKTALKLLKEWGSLENLLKNLDRVKPENVREKIKAHLEDLRLSLELSRVRTDLPLEVDLAQGREPDREGLRAFLERLEFGSLLHEFGLLEAPAPLEEAPWPPPEGAFVGFVLSRPEPMWAELKALAACRDGRVHRAADPLAGLKDLKEVRGLLAKDLAVLASREGLDLVPGDDPMLLAYLLDPSNTTPEGVARRYGGEWTEDAAHRALLSERLHRNLLKRLEGEEKLLWLYHEVEKPLSRVLAHMEATGVRLDVAYLQALSLELAEEIRRLEEEVFRLAGHPFNLNSRDQLERVLFDELRLPALGKTQKTGKRSTSAAVLEALREAHPIVEKILQHRELTKLKNTYVDPLPSLVHPRTGRLHTRFNQTATATGRLSSSDPNLQNIPVRTPLGQRIRRAFVAEAGWALVALDYSQIELRVLAHLSGDENLIRVFQEGKDIHTQTASWMFGVPPEAVDPLMRRAAKTVNFGVLYGMSAHRLSQELAIPYEEAVAFIERYFQSFPKVRAWIEKTLEEGRKRGYVETLFGRRRYVPDLNARVKSVREAAERMAFNMPVQGTAADLMKLAMVKLFPRLREMGARMLLQVHDELLLEAPQARAEEVAALAKEAMEKAYPLAVPLEVEVGMGEDWLSAKG | – | – | – | – | – | greater production of specific amplification product than seen in amplifications using unmodified Taq DNA polymerase | –
